The values that follow come from article PMC9052855 (RSC Advances, 2020).

The target in assay [1] is T1, jack bean urease (Canavalia ensiformis, UniProt P07374). In words: urease enzyme kinetics study. In kind it is biochemical.
For assay [2], the target named is T1, jack bean urease. The assay can be described thus: % urease inhibition assay and IC50. In kind it is biochemical.

T1 sequence (P07374 whole entry, looked up): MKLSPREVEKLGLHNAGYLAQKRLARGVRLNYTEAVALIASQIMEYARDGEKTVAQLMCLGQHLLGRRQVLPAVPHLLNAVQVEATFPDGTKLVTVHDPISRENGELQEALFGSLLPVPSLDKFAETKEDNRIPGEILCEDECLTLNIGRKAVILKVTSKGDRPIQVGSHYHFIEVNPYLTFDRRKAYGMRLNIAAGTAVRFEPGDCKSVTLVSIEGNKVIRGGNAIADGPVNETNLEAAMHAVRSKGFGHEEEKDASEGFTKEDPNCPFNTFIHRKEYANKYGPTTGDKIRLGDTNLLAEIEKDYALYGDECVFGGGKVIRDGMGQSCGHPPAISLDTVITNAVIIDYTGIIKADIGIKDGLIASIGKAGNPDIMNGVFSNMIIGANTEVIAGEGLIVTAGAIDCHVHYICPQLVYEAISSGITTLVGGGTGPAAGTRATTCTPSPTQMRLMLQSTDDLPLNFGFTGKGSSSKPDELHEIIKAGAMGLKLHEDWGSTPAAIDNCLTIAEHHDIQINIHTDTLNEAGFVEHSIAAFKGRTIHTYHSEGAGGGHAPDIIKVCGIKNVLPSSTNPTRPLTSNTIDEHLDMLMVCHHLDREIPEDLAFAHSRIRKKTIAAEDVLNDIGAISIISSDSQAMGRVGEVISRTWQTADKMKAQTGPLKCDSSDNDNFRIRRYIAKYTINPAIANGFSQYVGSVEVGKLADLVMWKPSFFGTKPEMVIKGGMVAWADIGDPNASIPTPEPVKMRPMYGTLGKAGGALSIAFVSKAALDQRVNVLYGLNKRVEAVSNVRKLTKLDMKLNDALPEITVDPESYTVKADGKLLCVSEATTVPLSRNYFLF

For `NC(N)=S` [Thiourea, thiourea], the Mode of inhibition result on jack bean urease [1] (Lineweaver–Burk plots, inhibitor 0–20 μM, urea 0.5–4.0 mM) is recorded as “Competitive”. Also, on jack bean urease [1] (calculated from secondary replot (Lineweaver–Burk)), the Ki (usually a measure of affinity in units of concentration, obtained from inhibition or displacement) is 18.2 µM. The “Vmax (app)” value on jack bean urease [1] (maximum velocity of enzymatic activity at 20 μM inhibitor concentration) is 18.61 µM/min. In addition, the % inhibition (commonly the change of the read-out against control, counted positive when it falls) at jack bean urease [2] (concentration not given) came out at 92.3%. Further, the IC50 (usually the concentration that gives 50% inhibition) on jack bean urease [2] (read-out: IC50 (μM), mean ± SEM, triplicate, mean ± SEM) was 22.6 ± 0.23 µM.
